The text below walks through data of patent publication US20070049535A1, “PREVENTIVE/REMEDY FOR DIABETIC COMPLICATIONS USING OLIGOPEPTIDE” (priority 2004, published 2007).

In data set [1] the test system is AGE2 production by glyceraldehyde and bovine serum albumin. The data set can be described thus: Inhibition of AGE2 production by glyceraldehyde and serum albumin (ELISA with anti-AGE2 polyclonal antibody). To be noted: read-out: IC50 of inhibition of AGE2 production; 10 mM glyceraldehyde, 10 mg/ml bovine serum albumin, phosphate buffer pH 7.4, 37° C., 3 days. On the technique in general: In an ELISA, binding on a coated surface is turned into a signal by an enzyme label.
Method: (§1) Three days later, AGE2 concentration of the reaction mixture was measured, and IC50 value of inhibition of AGE2 production by each peptide or amino acid was calculated. The AGE2 measurement was performed by the ELISA method using an anti-AGE2 polyclonal antibody prepared from rabbit, according to a conventional method.

A short description of data set [2]: AGE2-producing capability by reaction of oligopeptide with glyceraldehyde (ELISA with anti-AGE2 polyclonal antibody). It is filed as biochemical. To be noted: for AGE2 concentration: 10 mM amino acid or peptide + 100 mM glyceraldehyde, 0.1M phosphate buffer pH 7.4, 37° C., 1 week. On the procedure: To 0.1M phosphate buffer (pH 7.4) containing 10 mM of any of Lys, Lys-Lys, Lys-Lys-Lys, and Lys-Lys-Lys-Lys (SEQ ID NO: 1) was added 100 mM glyceraldehyde and the mixture was reacted at 37° C. for 1 week. One week later, the AGE2 concentration of the reaction mixture was measured.

The test system of another data set is serum AGE2. The data set can be described thus: Serum AGE2 concentration reduction in diabetic mouse model (db/db mouse). Format: in vivo. To be noted: db/db mice. On the procedure: 7-Week-old male db/db mice were randomly divided into 4 groups (3 per group), distilled water, 10 mM Lys-Lys solution, 30 mM Lys-Lys solution, or 100 mM Lys-Lys solution was freely given for 10 days as drinking water, blood samples were collected from the heart, and the serum AGE2 concentration was measured.

The subject of data set [3] is AGE2 production by glyceraldehyde and bovine serum albumin. To be noted: pH 7.4.
Method: as §1

Read-outs that look alike come from different tables or passages of the source. Peptide text beside a SMILES is read from it.

Regarding `NCCCC[C@H](NC(=O)[C@H](CCCCN)NC(=O)[C@H](CCCCN)NC(=O)[C@@H](N)CCCCN)C(=O)O` [Lys-Lys-Lys-Lys] (H-KKKK-OH), in data set [1], the IC50 (usually the concentration that gives 50% inhibition) was 620 µM. Besides, the AGE2 concentration in data set [2] is 14.2 U/ml.

On to `NCCCC[C@H](NC(=O)[C@@H](N)CCCCN)C(=O)O` [Lys-Lys], for which the AGE2 concentration in data set [2] is 4.7 U/ml. For the same compound, in data set [2] (reaction with glyceraldehyde, versus Lys alone), the “AGE2 production capacity relative to Lys alone” value is recorded as “about 10 times”. The entries for the “serum AGE2 concentration” value in the data set on serum AGE2 (10 mM solution as drinking water for 10 days), in the data set on serum AGE2 (30 mM solution as drinking water for 10 days) and with serum AGE2 (100 mM solution as drinking water for 10 days) were 3.5 ± 0.6 U/ml, 2.3 ± 0.4 U/ml and 1.7 ± 0.2 U/ml, respectively. For the same compound, the “serum AGE2 concentration, dose dependence” value with serum AGE2 (10-100 mM solution as drinking water for 10 days) is “decreased in a manner dependent on the Lys-Lys concentration”. The IC50 in data set [3] (bovine, 3 days) was found to be 560 µM.

Consider `N=C(N)NCCC[C@H](N)C(=O)O` [Arg, reference compound], for which, in data set [1], the IC50 was found to be 1900 µM.

Take `NCCCC[C@H](N)C(=O)O` [Lys, reference compound]: the AGE2 concentration in data set [2] is reported as 0.47 U/ml. This compound yielded an IC50 in data set [3] of 2200 µM.

In data set [3] (bovine, 3 days), `NCCCC[C@H](NC(=O)[C@@H](N)CCCN=C(N)N)C(=O)O` [Arg-Lys] (H-Arg-Lys-OH) registered an IC50 of 780 µM.
